Assay results reported in patent US7220784B2, “Substituted stilbenes and their reactions” (priority 2000, dated 2007).
pIC50: −log10 of the molar value. Read-outs that look alike come from different tables or passages of the source.

Key:
[1] = tested on: tubulin; assay: MA IC50 (Tables 12-26, abbreviation not defined); assay type: biochemical
[2] = tested on: K562; assay: K562 cell cycle analysis; assay type: cell-based, human; conditions: K562; for % of cells in G0–G1 / % of cells in G2-M / % of cells in S phase: of cells with DNA content = 2 n or >2 n
[3] = tested on: tubulin; assay: CD IC50 (Tables 12-26, abbreviation not defined); assay type: binding
[4] = tested on: P388 murine leukaemia cell line; assay: Cytotoxicity/growth inhibition assay (MTT), P388; assay type: cell-based
Experimental: (§1) (2) Competition for the colchicine binding site on tubulin. The figure quoted represents the % of ^3H-colchicine bound following co-incubation of test compound and ^3H-cochicine with isolated tubulin. Where ester pro-drugs were used the experiments were carried out in the presence and absence of porcine liver esterase. • (3) Cytotoxicity/growth inhibition assay. This was carried out by the MTT assay. • (4) Permeability (shape-change) assay in endothelial cells. […] This involved the diffusion of a fluorescently labelled dextran through a barrier of endothelial cells (HUVEC) grown to confluence on a porous membrane. The effect of agents to alter the shape of these cells results in an increase in the permeability of the cells to the dye. The figure represents the increase in permeability over control cultures when drug is added (30 minutes, 1 mM.). • (5) Experiments to study the anti-vascular effects of these agents were carried out as described previously by our group. […] The anti-vascular effects of the agents were monitored by either positron emission tomography (PET) or by histologogical examination following treatment of mice bearing T50:80 murine breast tumours, or H460 human lung tumours. • (6) Anti-tumour efficacy of agents was determined in xenografts of H460 human lung cancer. Animals (n=5) were trated either with 5 daily injections and tumour size measured with time following treatment. • (7) The pharmacokinetic profile of agents was determined in mice following injection with drug. Blood was taken at various times following treatment and analysed by HPLC with UV detection. […] (AND(P)H:quinone oxidoreductace, EC 1.6.99.2). DT-diaphorase is an enzyme over-expressed in a number of human tumours. […] This two-electron reducing enzyme can be used to selectively activate prodrugs within cancers which over-express the enzyme.

[5] = tested on: K562 human myelogeneous leukaemia cell line; assay: Cytotoxicity/growth inhibition assay (MTT), K562; assay type: cell-based; conditions: MTT, read-out: K562 IC50
Excerpt: In addition to the cell lines described in this paper, other established human cell lines (K562, HUVEC, H460, BE, H529, and HT29) were used in the cytotoxicity/growth inhibition assay. • (1) Inhibition of tubulin assembly. The figure quoted is the concentration required to reduce assembly of tubulin by 50%. Tubulin assembly is monitored by light scatter/absorption at 350 nm.
as §1

| SMILES | pIC50 [1] | pIC50 [3] | % of cells with DNA content <2 n [2] [%] | % of cells in G0–G1 [2] [%] | % of cells in G2-M [2] [%] | % of cells in S phase [2] [%] | pIC50 ([4]; Mus musculus, P388, MTT) | pIC50 ([5]; Homo sapiens, K562) | pIC50 ([4]; MTT) | pIC50 [5] |
| --- | --- | --- | --- | --- | --- | --- | --- | --- | --- | --- |
| COc1ccc(C=Cc2ccc(C)c(C)c2)cc1O [Compound 146] | 5.51 | 4.90 | 31 | 8 | 65 | 27 | 6.40 | 7.15 | – | – |
| COc1cc(/C=C/c2ccc(C)c(C)c2)cc(OC)c1OC [Compound 104] | < 5.00 | < 4.60 | – | – | – | – | – | – | 4.70 | 4.45 |
| COc1ccc(C(C)=Cc2cc(OC)c(OC)c(OC)c2)cc1O [Compound 200] | 5.05 | < 4.60 | – | – | – | – | 5.15 | 5.70 | – | – |
| COc1ccc(/C=C/c2ccc(C)c(C)c2)cc1[N+](=O)[O-] [Compound 140] | < 5.00 | < 4.60 | – | – | – | – | – | – | < 4.30 | 4.62 |
| COc1cc(/C=C\c2cccc(O)c2)cc(OC)c1OC [Compound 101] | < 5.00 | < 4.60 | – | – | – | – | 6.52 | 6.85 | – | – |

More lines, main results first:

| pIC50 [1] | pIC50 [3] | SMILES | % of cells with DNA content <2 n [2] [%] | % of cells in G0–G1 [2] [%] | % of cells in G2-M [2] [%] | % of cells in S phase [2] [%] | pIC50 ([4]; Mus musculus, P388, MTT) | pIC50 ([5]; Homo sapiens, K562) | pIC50 ([4]; MTT) | pIC50 [5] |
| --- | --- | --- | --- | --- | --- | --- | --- | --- | --- | --- |
| < 5.00 | < 4.60 | COc1ccc(/C=C/c2ccc(C)c(C)c2)cc1F [Compound 148] | – | – | – | – | – | – | 4.44 | 5.60 |
| 5.18 | < 4.60 | COc1ccc(C=Cc2ccc(C)c(C)c2)cc1F [Compound 147] | 28 | 10 | 57 | 33 | 5.77 | 7.05 | – | – |
| < 5.00 | < 4.60 | Cc1ccc(/C=C/c2ccc(C)c(F)c2)cc1C [Compound 150] | – | – | – | – | – | – | 4.40 | < 4.30 |
| < 5.00 | < 4.60 | COc1ccc(C=Cc2ccc(C)c(C)c2)cc1Br [Compound 143] | – | – | – | – | 5.60 | 5.94 | – | – |
| < 5.00 | < 4.60 | COc1ccc(C=Cc2ccc(C)c(C)c2)cc1 [Compound 141] | – | – | – | – | 5.31 | 5.80 | – | – |
| < 5.00 | < 4.60 | Cc1ccc(C=Cc2ccc(C)c(F)c2)cc1C [Compound 149] | – | – | – | – | 5.14 | 6.41 | – | – |
| < 5.00 | < 4.60 | COc1ccc(/C=C/c2ccc(C)c(C)c2)cc1Br [Compound 144] | – | – | – | – | – | – | < 4.30 | < 4.30 |
